In experiment [1] the test system is HL-60 cells with a mutated RARα gene. The experiment is described as follows: MTS cell viability assay, retinoic acid-resistant HL60R cells. The format is cell-based. (Formazan colour is commonly taken as a measure of viable cells.)
Description: These cells are resistant to retinoic acid-induced expression of the CD38 antigen due to a point mutation in the retinoic acid receptor alpha (RARα) gene. The cell line was cultured with increasing concentrations of immunotoxin (in ng/ml) under different conditions.
HL-60 cells with a mutated RARα gene that renders the cells resistant to the effects of retinoic acid were treated with immunotoxin in either the presence or absence of 5 nM retinoic acid.
The test system of the next experiment is CD38. Nature of the experiment: CD38 expression in tumor cells by flow cytometry after RA treatment. In kind it is cell-based. The settings on record: 5 nM RA. As to the method:
Table I lists the potential targets for anti-CD38 bound toxin treatment A number of different lymphoid tumor cell lines were treated with 5 nM all-trans-retinoic acid (RA). Afterwards, the expression of CD38 in untreated versus treated cell was measured by flow cytometry. […] The increase in CD38 expression ranges from 2.5 to 20 fold. Thus, retinoic acid can be used in all of these tumor types to increase the vulnerability of the tumor cells to immunotoxin treatment.
(In flow cytometry, cells or beads pass a laser one at a time.)

Experiment [2] concerns myeloid and lymphoid leukemia cells. The settings on record: retinoic acid 10^−13 M; cited from earlier work.
The subject of another experiment is HL-60 cells. Nature of the experiment: MTS cell viability assay, HL-60 cells. The conditions noted are these: 3 days, presence or absence of 5 nM retinoic acid. In kind it is cell-based. Here is the method: HL-60 cells were incubated with either immunotoxin alone or in the presence of 5 nM retinoic acid (RA). Increasing concentrations of unconjugated IB4 monoclonal antibody were added to the cells incubated with immunotoxin and retinoic acid. After three days, the cells were assayed for viability with the MTS assay. Briefly, 6.5 mg/ml MTS solution [(3-(4,5-dimethylthiazol-2-yl)-5-(3-carboxymethoxyphenyl)-2-(4-sulfophenyl)-2H-tetrazolium] and 0.5 mM PMS (phenazine methosulfate) solution were mixed at a ratio of 20:1. 20 μl of the combined MTS/PMS solution was placed in each well of a 96 well plate containing samples of the cells to be tested. The plate was incubated for 1–4 hours at 37° C. in a 5% CO2 atmosphere, after which time, the amount of formazan produced by live cells from cellular reduction of MTS was measured by reading the absorbance at 490 nm. The results are shown in FIG. 2.
HL-60 cells were preincubated overnight in either the presence or absence of 5 nM all-trans-retinoic acid. The cells were washed twice and incubated in increasing concentrations of immunotoxin in either the presence or absence of IB4 unconjugated anti-CD38 MoAb. After three days, the cell were assayed for viability.
HL-60 cells were incubated for three days with increasing concentrations of either immunotoxin or gelonin in either the presence or absence of 5 nM retinoic acid. […]

Like-named read-outs stand apart in the source and are kept apart here.

Regarding `CC1=C(/C=C/C(C)=C/C=C/C(C)=C/C(=O)O)C(C)(C)CCC1` [RA, all-trans-retinoic acid], in experiment [1], the “cell death (MTS)” value is listed as “no appreciable cell death”. The “CD38 after RA treatment” value in the experiment on CD38 (AML cells) is reported as 180 ± 20; in the experiment on CD38 (APL cells), 120 ± 30; with CD38 (Lymphomas) it was 210 ± 10; in the experiment on CD38 (Myelomas), 180 ± 25. For the same compound, in experiment [2], the “induction of CD38 cell surface antigen expression” value was 4 fold.

As to gelonin, in the experiment on HL-60 cells, the “toxic effect (MTS cell viability)” value is given as “no toxic effect”. Moreover, the “cell death (MTS)” value in experiment [1] (HL60R (mutated RARα), 3 days) is given as “no appreciable cell death”.

(Values after patent US7223397B1, “Potentiation of anti-CD38-Immunotoxin cytotoxicity” (priority 1999, dated 2007).)
